The target of this assay is T1, human OX2R (Homo sapiens, UniProt O43614).
T1 construct: expressed in transfected cells; host or cells: Chinese hamster ovary (CHO) cells, kept under G418 selection
T1 sequence (O43614 1-444): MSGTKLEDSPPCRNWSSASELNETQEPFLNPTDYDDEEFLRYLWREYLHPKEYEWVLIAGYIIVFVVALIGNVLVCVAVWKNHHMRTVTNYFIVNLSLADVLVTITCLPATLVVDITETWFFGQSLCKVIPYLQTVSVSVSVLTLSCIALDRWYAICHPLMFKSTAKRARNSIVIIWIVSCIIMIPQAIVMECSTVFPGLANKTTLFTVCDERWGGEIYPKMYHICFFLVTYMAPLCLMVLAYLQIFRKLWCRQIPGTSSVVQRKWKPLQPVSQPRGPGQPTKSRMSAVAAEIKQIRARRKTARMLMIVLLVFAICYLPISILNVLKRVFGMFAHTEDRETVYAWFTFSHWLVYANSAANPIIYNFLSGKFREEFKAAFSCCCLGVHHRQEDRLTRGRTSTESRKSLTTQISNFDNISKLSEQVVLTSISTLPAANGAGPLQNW
Put plainly: IPOne (IP-One) orexin receptor agonist assay in CHO cells expressing human OX2R. Type of assay: cell-based. The settings on record: for EC50: CHO cells expressing human OX2R, IP-One detection, 2 hours incubation, four parameter logistic fit, read-out: OX2R Potency, EC50; for % max agonist effect (Emax): human OX2R, percentage of sample raw value/mean max effect (reference compound at 1 uM with 100% activity).

A value given as a limit tells only on which side of the number the result lay.

Regarding `CS(=O)(=O)N[C@H]1CCN(c2cnccc2O)[C@H]1CO[C@H]1CC[C@@H](c2ccccc2)CC1` [Example 122, N-((2R,3S)-1-(4-hydroxypyridin-3-yl)-2-((((CIS)-4-phenylcyclohexyl)oxy)methyl)pyrrolidin-3-yl)methanesulfonamide], the EC50 (as a rule, the concentration at which the effect is half-maximal) is 0.0383 µM and the “% max agonist effect (Emax)” value came to 101%.
The like results for `CS(=O)(=O)N[C@H]1CCN(c2cnccc2OCc2ccccc2)[C@H]1CO[C@H]1CC[C@@H](c2ccccc2)CC1` [Example 123, N-((2R,3S)-1-(4-(benzyloxy)pyridin-3-yl)-2-((((CIS)-4-phenylcyclohexyl)oxy)methyl)pyrrolidin-3-yl)methanesulfonamide] were, in that order, 0.755 µM and 97.6%.
For the molecule `CS(=O)(=O)N[C@H]1CCN(c2ncccc2C(F)F)[C@H]1CO[C@H]1CC[C@@H](c2ccccc2)CC1` [Example 124, N-((2R,3S)-1-(3-(difluoromethyl)pyridin-2-yl)-2-((((CIS)-4-phenylcyclohexyl)oxy)methyl)pyrrolidin-3-yl)methanesulfonamide], the EC50 turned out to be 0.15 µM and the “% max agonist effect (Emax)” value was determined as 100.2%.
With `Cc1cccnc1N1CC[C@H](NS(C)(=O)=O)[C@@H]1CO[C@H]1CC[C@@H](c2ccccc2)CC1` [Example 125, N-((2R,3S)-1-(3-methylpyridin-2-yl)-2-((((CIS)-4-phenylcyclohexyl)oxy)methyl)pyrrolidin-3-yl)methanesulfonamide], the EC50 came out at 0.0592 µM and the “% max agonist effect (Emax)” value came to 100%.
Take `CS(=O)(=O)N[C@H]1CCN(c2ncccc2C(F)(F)F)[C@H]1CO[C@H]1CC[C@@H](c2ccccc2)CC1` [Example 126, N-((2R,3S)-2-((((CIS)-4-phenylcyclohexyl)oxy)methyl)-1-(3-(trifluoromethyl)pyridin-2-yl)pyrrolidin-3-yl)methanesulfonamide]: the EC50 is 0.37 µM and the “% max agonist effect (Emax)” value is on record as 100%.
In the case of `CS(=O)(=O)N[C@H]1CCN(c2ncccc2OC(F)(F)F)[C@H]1CO[C@H]1CC[C@@H](c2ccccc2)CC1` [Example 127], the EC50 is 0.162 µM and the “% max agonist effect (Emax)” value turned out to be 100.7%.
Regarding `COc1cncc(N2CC[C@H](NS(C)(=O)=O)[C@@H]2CO[C@H]2CC[C@@H](c3ccccc3)CC2)c1C` [Example 128, N-((2R,3S)-1-(5-methoxy-4-methylpyridin-3-yl)-2-((((CIS)-4-phenylcyclohexyl)oxy)methyl)pyrrolidin-3-yl)methanesulfonamide], the EC50 is > 10 µM and the “% max agonist effect (Emax)” value is listed as 50.4%.
The like results for `CS(=O)(=O)N[C@H]1CCN(c2cc(F)cnc2O)[C@H]1CO[C@H]1CC[C@@H](c2ccccc2)CC1` [Example 129, N-((2R,3S)-1-(5-fluoro-2-hydroxypyridin-3-yl)-2-((((CIS)-4-phenylcyclohexyl)oxy)methyl)pyrrolidin-3-yl)methanesulfonamide] were, in that order, 0.821 µM and 99.7%.
For `CS(=O)(=O)N[C@H]1CCN(c2ccc(C(F)(F)F)cn2)[C@H]1CO[C@H]1CC[C@@H](c2ccccc2)CC1` [Example 130, N-((2R,3S)-2-((((CIS)-4-phenylcyclohexyl)oxy)methyl)-1-(5-(trifluoromethyl)pyridin-2-yl)pyrrolidin-3-yl)methanesulfonamide], the EC50 turned out to be 4 µM and the “% max agonist effect (Emax)” value was 70.8%.
On to `CS(=O)(=O)N[C@H]1CCN(c2ncccc2F)[C@H]1CO[C@H]1CC[C@@H](c2ccccc2)CC1` [Example 131, N-((2R,3S)-1-(3-fluoropyridin-2-yl)-2-((((CIS)-4-phenylcyclohexyl)oxy)methyl)pyrrolidin-3-yl)methanesulfonamide], for which the EC50 stood at 0.736 µM and the “% max agonist effect (Emax)” value was 98.8%.
Consider `CS(=O)(=O)N[C@H]1CCN(c2ccc(C#N)cn2)[C@H]1CO[C@H]1CC[C@@H](c2ccccc2)CC1` [Example 132, N-((2R,3S)-1-(5-cyanopyridin-2-yl)-2-((((CIS)-4-phenylcyclohexyl)oxy)methyl)pyrrolidin-3-yl)methanesulfonamide], for which the EC50 is > 10 µM and the “% max agonist effect (Emax)” value stood at 75.3%.
The like results for `CS(=O)(=O)N[C@H]1CCN(c2cncc(C#N)c2)[C@H]1CO[C@H]1CC[C@@H](c2ccccc2)CC1` [Example 133, N-((2R,3S)-1-(5-cyanopyridin-3-yl)-2-((((CIS)-4-phenylcyclohexyl)oxy)methyl)pyrrolidin-3-yl)methanesulfonamide] were, in that order, 0.993 µM and 100.3%.
As for `CS(=O)(=O)N[C@H]1CCN(c2ccc[n+]([O-])c2)[C@H]1CO[C@H]1CC[C@@H](c2ccccc2)CC1` [Example 134], the EC50 was determined as 0.0207 µM and the “% max agonist effect (Emax)” value was 101.7%.
In the case of `CS(=O)(=O)N[C@H]1CCN(c2ncccc2O)[C@H]1CO[C@H]1CC[C@@H](c2ccccc2)CC1` [Example 135, N-((2R,3S)-1-(3-hydroxypyridin-2-yl)-2-((((CIS)-4-phenylcyclohexyl)oxy)methyl)pyrrolidin-3-yl)methanesulfonamide], the “% max agonist effect (Emax)” value came out at 101.1%.
For the molecule `CS(=O)(=O)N[C@H]1CCN(c2ncccc2C#N)[C@H]1CO[C@H]1CC[C@@H](c2ccccc2)CC1` [Example 136, N-((2R,3S)-1-(3-cyanopyridin-2-yl)-2-((((CIS)-4-phenylcyclohexyl)oxy)methyl)pyrrolidin-3-yl)methanesulfonamide], the EC50 came out at 0.164 µM and the “% max agonist effect (Emax)” value came out at 100.6%.
On to `CS(=O)(=O)N[C@H]1CCN(c2ncccc2O)[C@H]1CO[C@H]1CC[C@@H](c2ccccc2)CC1` [Example 137, N-((2R,3S)-1-(3-hydroxypyridin-2-yl)-2-((((CIS)-4-phenylcyclohexyl)oxy)methyl)pyrrolidin-3-yl)methanesulfonamide], for which the “% max agonist effect (Emax)” value was found to be 100.5%.
For `CS(=O)(=O)N[C@H]1CCN(c2cc(C#N)ccn2)[C@H]1CO[C@H]1CC[C@@H](c2ccccc2)CC1` [Example 138, N-((2R,3S)-1-(4-cyanopyridin-2-yl)-2-((((CIS)-4-phenylcyclohexyl)oxy)methyl)pyrrolidin-3-yl)methanesulfonamide], the EC50 came to 0.0721 µM and the “% max agonist effect (Emax)” value was 99.8%.
On to `CS(=O)(=O)N[C@H]1CCN(c2cccc(C#N)n2)[C@H]1CO[C@H]1CC[C@@H](c2ccccc2)CC1` [Example 139, N-((2R,3S)-1-(6-cyanopyridin-2-yl)-2-((((CIS)-4-phenylcyclohexyl)oxy)methyl)pyrrolidin-3-yl)methanesulfonamide], for which the EC50 worked out at 1.4 µM and the “% max agonist effect (Emax)” value worked out at 68.5%.
Take `CS(=O)(=O)N[C@H]1CCN(c2cc(OC(F)F)c(F)cn2)[C@H]1CO[C@H]1CC[C@@H](c2ccccc2)CC1` [Example 140, N-((2R,3S)-1-(4-(difluoromethoxy)-5-fluoropyridin-2-yl)-2-((((CIS)-4-phenylcyclohexyl)oxy)methyl)pyrrolidin-3-yl)methanesulfonamide]: the EC50 was determined as 0.299 µM and the “% max agonist effect (Emax)” value was 98.8%.
As to `COc1cccnc1N1CC[C@H](NS(C)(=O)=O)[C@@H]1CO[C@H]1CC[C@@H](c2ccccc2)CC1` [Example 141, N-((2R,3S)-1-(3-methoxypyridin-2-yl)-2-((((CIS)-4-phenylcyclohexyl)oxy)methyl)pyrrolidin-3-yl)methanesulfonamide], the EC50 was determined as 0.0071 µM and the “% max agonist effect (Emax)” value is listed as 100.2%.

Source of the values: patent US12312332B2 (Merck Sharp & Dohme LLC., priority 2019, dated 2025).
